Experimental data taken from patent publication US20240189389A1, “DRUG WITH PROLONGED ANALGESIC ACTION” (priority 2020, published 2024).

Experiments:
[1] = reduced only in part with repeated dosing; cited from earlier work
ICR male white mice = assay: Formalin test on mice; format: in vivo; conditions: oral, 100 mg/kg (positive control)
Experimental: Tests are performed on ICR male white mice of 20-30 g body weight. Mice are divided into 4 groups (a control one and experimental ones) of 9 mice each. The tested HCRG21 peptide is dissolved in a sterile physiological saline solution and is administered intramuscularly at the doses of 0.1 and 1.0 mg/kg. Control animals receive the equivalent volume of sterile physiological saline solution. Ibuprofen at the dose of 100 mg/kg is used as a positive control and is administered to animals orally. 60 minutes later all mice are injected in a hinder paw pad with 20 μl of 2.5% formalin solution. Patterns of pain response are recorded immediately after the injection (a number of paw licking episodes and a hind paw withdrawal time) according to the following schedule:
1st period (acute): for 20 min after the injection patterns are recorded per 1 min with 6-minute intervals (0, 6, 12 and 18 min);
2nd period (tonic): 30 min after the formalin injection patterns are recorded for 20 min per 1 min with 6-minute intervals (30, 36, 42, 48 min).
The analgesic effect is evaluated by the decrease of the duration of pain response patterns relative to control animals (FIG. 9). The results are statistically processed, statistical significance of differences of the results of control and experimental group is determined using the Student's test.

[2] = phase I clinical trial data; cited from earlier work
TRPV1 = biological target: T1, TRPV1 (Homo sapiens, UniProt Q8NER1); conditions: high dose (400 mg); cited from earlier work
T1 construct: host or cells: human subjects (in vivo)
T1 sequence (Q8NER1 whole entry): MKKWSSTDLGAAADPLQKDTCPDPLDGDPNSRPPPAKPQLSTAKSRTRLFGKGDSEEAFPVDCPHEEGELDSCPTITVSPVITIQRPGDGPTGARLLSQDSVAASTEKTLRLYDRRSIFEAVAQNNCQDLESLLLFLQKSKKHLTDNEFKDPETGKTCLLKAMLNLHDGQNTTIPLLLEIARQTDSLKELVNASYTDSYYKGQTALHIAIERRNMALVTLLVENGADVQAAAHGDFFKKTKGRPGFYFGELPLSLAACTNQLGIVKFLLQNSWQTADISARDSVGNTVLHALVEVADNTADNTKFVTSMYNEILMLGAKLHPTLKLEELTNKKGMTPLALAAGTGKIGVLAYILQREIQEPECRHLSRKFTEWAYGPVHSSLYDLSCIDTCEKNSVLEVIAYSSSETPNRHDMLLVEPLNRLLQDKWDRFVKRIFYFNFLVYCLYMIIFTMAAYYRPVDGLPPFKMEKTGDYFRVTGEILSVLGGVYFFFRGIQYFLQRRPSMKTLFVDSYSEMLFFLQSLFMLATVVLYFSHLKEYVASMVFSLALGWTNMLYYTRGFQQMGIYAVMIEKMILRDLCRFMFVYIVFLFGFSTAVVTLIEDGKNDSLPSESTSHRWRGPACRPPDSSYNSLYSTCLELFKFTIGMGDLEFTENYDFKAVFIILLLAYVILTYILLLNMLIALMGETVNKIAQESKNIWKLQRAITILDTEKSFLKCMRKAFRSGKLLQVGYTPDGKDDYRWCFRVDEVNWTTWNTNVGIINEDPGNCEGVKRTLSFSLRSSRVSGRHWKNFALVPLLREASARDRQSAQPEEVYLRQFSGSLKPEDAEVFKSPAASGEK

Which “temperature increase in humans” value [1] does the source give for CC(=O)Nc1nc2c(Oc3cc(-c4ccc(C(F)(F)F)cc4)ncn3)cccc2s1 [AMG-517] here?
Its value is “high and steady temperature increase”.

For CC(C)Cc1ccc(C(C)C(=O)O)cc1 (stereo not shown) [Ibuprofen, ibuprofen], which “analgesic properties compared with HCRG21” value (ICR male white mice) is on record?
The value was “concedes much to the HCRG21 peptide”.

What does the source list for O=C(Nc1ccccc1Br)N[C@@H]1CCN(c2ccc(C(F)(F)F)cn2)C1 [SB-705498]?
elimination half-life [2]: 35 to 93 h; pharmacodynamic activity in the reduction of inflammation induced by heat injuries, UV radiation and capsaicin (TRPV1): evidences a target pharmacodynamic activity
